Reference: patent publication US9963442B2, “Pyridones as herbicides” (E I DU PONT DE NEMOURS AND COMPANY, priority 2014, dated 2018)

Legend:
Type in all cases: in vivo
[1] = system: Italian ryegrass (Lolium multiflorum); experiment: Test A postemergence application; details: approx. 10 days
Procedure, shortened: (§1)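 Visual injury scores on a 0–100 scale (100 = complete control), taken roughly 10 days after treatment in greenhouse relative to untreated plants. Seeded pots got a preemergence directed soil spray; postemergence sprays hit one- to two-leaf plants, 2–10 cm; formulation: solvent mixture with surfactant.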

[2] = system: barnyardgrass (Echinochloa crus-galli); experiment: Test A postemergence application; details: approx. 10 days
Procedure, shortened: as §1

[3] = system: blackgrass (Alopecurus myosuroides); experiment: Test A postemergence application; details: approx. 10 days
Procedure, shortened: as §1

corn (Zea mays) [4] = experiment: Test A postemergence application; details: approx. 10 days
Procedure, shortened: as §1

[5] = system: galium (catchweed bedstraw, Galium aparine); experiment: Test A postemergence application; details: approx. 10 days
Procedure, shortened: as §1

[6] = system: giant foxtail (Setaria faberii); experiment: Test A postemergence application; details: approx. 10 days
Procedure, shortened: as §1

kochia (Kochia scoparia) = experiment: Test A postemergence application; details: approx. 10 days
Procedure, shortened: as §1

[7] = system: pigweed (Amaranthus retroflexus); experiment: Test A postemergence application; details: approx. 10 days
Procedure, shortened: as §1

[8] = system: ragweed (common ragweed, Ambrosia elatior); experiment: Test A postemergence application; details: approx. 10 days
Procedure, shortened: as §1

[9] = system: wheat (Triticum aestivum); experiment: Test A postemergence application; details: approx. 10 days
Procedure, shortened: as §1

[10] = system: Italian ryegrass (Lolium multiflorum); experiment: Test C preemergence; details: scale 0 to 100, 0 is no effect, 100 is complete control
Description: (§2) Seeds of plant species selected from blackgrass (Alopecurus myosuroides), Italian ryegrass (Lolium multiflorum), winter wheat (Triticum aestivum), galium (catchweed bedstraw, Galium aparine), corn (Zea mays), large (Lg) crabgrass (Digitaria sanguinalis), giant foxtail (Setaria faberii), johnsongrass (Sorghum halepense), lambsquarters (Chenopodium album), morningglory (Ipomoea coccinea), yellow nutsedge (Cyperus esculentus), pigweed (Amaranthus retroflexus), ragweed (common ragweed, Ambrosia elatior), soybean (Glycine max), barnyardgrass (Echinochloa crus-galli), oilseed rape (Brassica napus), waterhemp (common waterhemp, Amaranthus rudis), and velvetleaf (Abutilon theophrasti) were planted into a blend of loam soil and sand and treated preemergence with test chemicals formulated in a non-phytotoxic solvent mixture which included a surfactant. At the same time, plants selected from these crop and weed species and also chickweed (common chickweed, Stellaria media), kochia (Kochia scoparia), and wild oat (Avena fatua), were planted in pots containing Sunshine Redi-Earth® planting medium comprising spaghnum peat moss, vermiculite, starter nutrients and dolomitic limestone and treated with postemergence applications of test chemicals formulated in the same manner. Plants ranged in height from 2 to 18 cm (1- to 4-leaf stage) for postemergence treatments. Treated plants and controls were maintained in a greenhouse for 13 to 15 days, after which time all species were compared to controls and visually evaluated. Plant response ratings, summarized in Table C, are based on a scale of 0 to 100 where 0 is no effect and 100 is complete control. A dash (-) response means no test result.

[11] = system: blackgrass (Alopecurus myosuroides); experiment: Test C preemergence; details: scale 0 to 100, 0 is no effect, 100 is complete control
Description: as §2

corn (Zea mays) [12] = experiment: Test C preemergence; details: scale 0 to 100, 0 is no effect, 100 is complete control
Description: as §2

[13] = system: johnsongrass (Sorghum halepense); experiment: Test C preemergence; details: scale 0 to 100, 0 is no effect, 100 is complete control
Description: as §2

[14] = system: lambsquarters (Chenopodium album); experiment: Test C preemergence; details: scale 0 to 100, 0 is no effect, 100 is complete control
Description: as §2

[15] = system: morningglory (Ipomoea coccinea); experiment: Test C preemergence; details: scale 0 to 100, 0 is no effect, 100 is complete control
Description: as §2

[16] = system: oilseed rape (Brassica napus); experiment: Test C preemergence; details: scale 0 to 100, 0 is no effect, 100 is complete control
Description: as §2

[17] = system: pigweed (Amaranthus retroflexus); experiment: Test C preemergence; details: scale 0 to 100, 0 is no effect, 100 is complete control
Description: as §2

[18] = system: ragweed (common ragweed, Ambrosia elatior); experiment: Test C preemergence; details: scale 0 to 100, 0 is no effect, 100 is complete control
Description: as §2

soybean (Glycine max) = experiment: Test C preemergence; details: scale 0 to 100, 0 is no effect, 100 is complete control
Description: as §2

[19] = system: waterhemp (common waterhemp, Amaranthus rudis); experiment: Test C preemergence; details: scale 0 to 100, 0 is no effect, 100 is complete control
Description: as §2

[20] = system: yellow nutsedge (Cyperus esculentus); experiment: Test C preemergence; details: scale 0 to 100, 0 is no effect, 100 is complete control
Description: as §2

O=c1cccc(Oc2ncc(Cl)cn2)n1-c1ccc(C(F)(F)F)cn1 [Compound 7]
Plant response rating (0 to 100 scale, 0 no effect, 100 complete control), Ryegrass, Italian ([1]; 31 g ai/ha): 0 | Plant response rating (0 to 100 scale, 0 no effect, 100 complete control), Ryegrass, Italian ([1]; 125 g ai/ha): 20 | Plant response rating (0 to 100 scale, 0 no effect, 100 complete control), Barnyardgrass ([2]; 31 g ai/ha): 20 | Plant response rating (0 to 100 scale, 0 no effect, 100 complete control), Barnyardgrass ([2]; 125 g ai/ha): 50 | Plant response rating (0 to 100 scale, 0 no effect, 100 complete control), Blackgrass ([3]; 31 g ai/ha): 10 | Plant response rating (0 to 100 scale, 0 no effect, 100 complete control), Blackgrass ([3]; 125 g ai/ha): 30 | Plant response rating (0 to 100 scale, 0 no effect, 100 complete control), Corn (corn (Zea mays) [4]; 31 g ai/ha): 10 | Plant response rating (0 to 100 scale, 0 no effect, 100 complete control), Corn (corn (Zea mays) [4]; 125 g ai/ha): 20 | Plant response rating (0 to 100 scale, 0 no effect, 100 complete control), Galium ([5]; 31 g ai/ha): 50 | Plant response rating (0 to 100 scale, 0 no effect, 100 complete control), Galium ([5]; 125 g ai/ha): 90 | Plant response rating (0 to 100 scale, 0 no effect, 100 complete control), Foxtail, Giant ([6]; 31 g ai/ha): 20 | Plant response rating (0 to 100 scale, 0 no effect, 100 complete control), Foxtail, Giant ([6]; 125 g ai/ha): 50 | Plant response rating (0 to 100 scale, 0 no effect, 100 complete control), Kochia (kochia (Kochia scoparia); 31 g ai/ha): 80 | Plant response rating (0 to 100 scale, 0 no effect, 100 complete control), Kochia (kochia (Kochia scoparia); 125 g ai/ha): 90 | Plant response rating (0 to 100 scale, 0 no effect, 100 complete control), Pigweed ([7]; 31 g ai/ha): 70 | Plant response rating (0 to 100 scale, 0 no effect, 100 complete control), Pigweed ([7]; 125 g ai/ha): 90 | Plant response rating (0 to 100 scale, 0 no effect, 100 complete control), Ragweed ([8]; 31 g ai/ha): 30 | Plant response rating (0 to 100 scale, 0 no effect, 100 complete control), Ragweed ([8]; 125 g ai/ha): 60 | Plant response rating (0 to 100 scale, 0 no effect, 100 complete control), Wheat ([9]; 31 g ai/ha): 0 | Plant response rating (0 to 100 scale, 0 no effect, 100 complete control), Wheat ([9]; 125 g ai/ha): 20 | Plant response rating, Ryegrass, Italian ([10]; 16 g ai/ha): 0 | Plant response rating, Ryegrass, Italian ([10]; 31 g ai/ha): 0 | Plant response rating, Ryegrass, Italian ([10]; 62 g ai/ha): 10 | Plant response rating, Ryegrass, Italian ([10]; 125 g ai/ha): 30 | Plant response rating, Blackgrass ([11]; 16 g ai/ha): 0 | Plant response rating, Blackgrass ([11]; 31 g ai/ha): 0 | Plant response rating, Blackgrass ([11]; 62 g ai/ha): 30 | Plant response rating, Blackgrass ([11]; 125 g ai/ha): 85 | Plant response rating, Corn (corn (Zea mays) [12]; 16 g ai/ha): 0 | Plant response rating, Corn (corn (Zea mays) [12]; 31 g ai/ha): 0 | Plant response rating, Corn (corn (Zea mays) [12]; 62 g ai/ha): 10 | Plant response rating, Corn (corn (Zea mays) [12]; 125 g ai/ha): 10 | Plant response rating, Johnsongrass ([13]; 16 g ai/ha): 0 | Plant response rating, Johnsongrass ([13]; 31 g ai/ha): 0 | Plant response rating, Johnsongrass ([13]; 62 g ai/ha): 10 | Plant response rating, Johnsongrass ([13]; 125 g ai/ha): 20 | Plant response rating, Lambsquarters ([14]; 16 g ai/ha): 15 | Plant response rating, Lambsquarters ([14]; 31 g ai/ha): 40 | Plant response rating, Lambsquarters ([14]; 62 g ai/ha): 75 | Plant response rating, Lambsquarters ([14]; 125 g ai/ha): 75 | Plant response rating, Morningglory ([15]; 16 g ai/ha): 0 | Plant response rating, Morningglory ([15]; 31 g ai/ha): 0 | Plant response rating, Morningglory ([15]; 62 g ai/ha): 10 | Plant response rating, Morningglory ([15]; 125 g ai/ha): 25 | Plant response rating, Oilseed Rape ([16]; 16 g ai/ha): 5 | Plant response rating, Oilseed Rape ([16]; 31 g ai/ha): 35 | Plant response rating, Oilseed Rape ([16]; 62 g ai/ha): 85 | Plant response rating, Oilseed Rape ([16]; 125 g ai/ha): 95 | Plant response rating, Pigweed ([17]; 16 g ai/ha): 20 | Plant response rating, Pigweed ([17]; 31 g ai/ha): 100 | Plant response rating, Pigweed ([17]; 62 g ai/ha): 100 | Plant response rating, Pigweed ([17]; 125 g ai/ha): 100 | Plant response rating, Ragweed ([18]; 16 g ai/ha): 35 | Plant response rating, Ragweed ([18]; 31 g ai/ha): 45 | Plant response rating, Ragweed ([18]; 62 g ai/ha): 50 | Plant response rating, Ragweed ([18]; 125 g ai/ha): 40 | Plant response rating, Soybean (soybean (Glycine max); 16 g ai/ha): 10 | Plant response rating, Soybean (soybean (Glycine max); 62 g ai/ha): 15 | Plant response rating, Soybean (soybean (Glycine max); 125 g ai/ha): 50 | Plant response rating, Waterhemp ([19]; 16 g ai/ha): 85 | Plant response rating, Waterhemp ([19]; 31 g ai/ha): 85 | Plant response rating, Waterhemp ([19]; 62 g ai/ha): 100 | Plant response rating, Waterhemp ([19]; 125 g ai/ha): 100 | Plant response rating, Nutsedge, Yellow ([20]; 16 g ai/ha): 0 | Plant response rating, Nutsedge, Yellow ([20]; 31 g ai/ha): 0 | Plant response rating, Nutsedge, Yellow ([20]; 62 g ai/ha): 0 | Plant response rating, Nutsedge, Yellow ([20]; 125 g ai/ha): 15
